Assay results as given in patent US10500209B2, “Quinazolinones as bromodomain inhibitors” (Zenith Epigenetics Ltd., priority 2013, dated 2019).

Columns and labels:
[1] = test system: human AML MV-4-11 cells; assay: Inhibition of cell proliferation in cancer cell lines (CellTiter Aqueous One); assay type: cell-based; set-up: key: Active: Compounds with an IC50 value less than 30 μM were deemed to be active.; Not Active: Compounds with an IC50 value less than 30 μM were deemed to be active; details: 72 h
Experimental: MV4-11 cells: 96-well plates were seeded with 5×10^4 cells per well of exponentially growing human AML MV-4-11 (CRL-9591) cells and immediately treated with two-fold dilutions of test compounds, ranging from 30 μM to 0.2 μM. Triplicate wells were used for each concentration, as well as a media only and three DMSO control wells. The cells and compounds were incubated at 37° C., 5% CO2 for 72 h before adding 20 μL of the CellTiter Aqueous One Solution (Promega) to each well and incubating at 37° C., 5% CO2 for an additional 3-4 h. The absorbance was taken at 490 nm in a spectrophotometer and the percentage of proliferation relative to DMSO-treated cells was calculated after correction from the blank well. IC50 were calculated using the GraphPad Prism software.

[2] = test system: c-myc in MV4-11 cells; assay: Inhibition of c-myc expression in cancer cell lines (mRNA, real-time PCR); assay type: cell-based, Human; set-up: key: Active: Compounds with an IC50 value less than 30 μM were deemed to be active.; Not Active: Compounds with an IC50 value less than 30 μM were deemed to be active; details: 3 h
Experimental: MV4-11 cells (2.5×10^4 cells) were plated in 96 well U-bottom plates with test compound or DMSO (0.1%), and incubated for 3 h at 37° C. Cells were then harvested by centrifugation, lysed, and mRNA was isolated using the mRNA catcher plus kit (Invitrogen). Reverse transcription of the mRNA and duplex amplification of the c-myc and cyclophilin cDNAs was performed using the RNA Ultrasense kit (Invitrogen) and a ViiA7 real-time PCR machine (Applied Biosystems). IC50 values were determined from a dose response curve.

[3] = target: T1, Brd4 bromodomain 1 (BRD4(1)) (Homo sapiens, UniProt O60885); assay: Inhibition of tetra-acetylated histone H4 binding to BET bromodomains (TR-FRET); set-up: key: Active: Compounds with an IC50 value less than 30 μM were deemed to be active.; Not Active: Compounds with an IC50 value less than 30 μM were deemed to be active; details: first bromodomain of Brd4, tetra-acetylated histone H4 peptide
T1 construct: made in house; host or cells: E. coli BL21(DE3)
Experimental: Proteins were cloned and overexpressed with a N-terminal 6×His tag, then purified by nickel affinity followed by size exclusion chromatography. Briefly, E. coli BL21(DE3) cells were transformed with a recombinant expression vector encoding N-terminally Nickel affinity tagged bromodomains from Brd2, Brd3, Brd4. Cell cultures were incubated at 37° C. with shaking to the appropriate density and induced overnight with IPTG. The supernatant of lysed cells was loaded onto Ni-IDA column for purification. Eluted protein is pooled, concentrated and further purified by size exclusion chromatography. Fractions representing monomeric protein were pooled, concentrated, aliquoted, and frozen at −80° C. for use in subsequent experiments.
Binding of tetra-acetylated histone H4 and BET bromodomains was confirmed by a Time Resolved Fluorescence Resonance Energy Transfer (TR-FRET) method. N-terminally His-tagged bromodomains (200 nM) and biotinylated tetra-acetylated histone H4 peptide (25-50 nM, Millipore) were incubated in the presence of Europium Cryptate-labeled streptavidin (Cisbio Cat. #610SAKLB) and XL665-labeled monoclonal anti-His antibody (Cisbio Cat. #61HISXLB) in a white 96 well microtiter plate (Greiner). For inhibition assays, serially diluted test compound was added to these reactions in a 0.2% final concentration of DMSO. Final buffer concentrations were 30 mM HEPES pH 7.4, 30 mM NaCl, 0.3 mM CHAPS, 20 mM phosphate pH 7.0, 320 mM KF, 0.08% BSA). After a 2-h incubation at room temperature, the fluorescence by FRET was measured at 665 and 620 nm by a SynergyH4 plate reader (Biotek). The binding inhibitory activity was shown by a decrease in 665 nm fluorescence relative to 620 nm. IC50 values were determined from a dose response curve.

[4] = test system: hIL-6 mRNA; assay: Inhibition of hIL-6 mRNA transcription in LPS-stimulated U937 macrophages; assay type: cell-based, human; set-up: key: Active: Compounds with an IC50 value less than 30 μM were deemed to be active.; Not Active: Compounds with an IC50 value less than 30 μM were deemed to be active; details: U937 cells differentiated with PMA, LPS stimulation, 3 h
Experimental: In this example, hIL-6 mRNA in tissue culture cells was quantitated to measure the transcriptional inhibition of hIL-6 when treated with a compound of the present disclosure.
A human leukemic monocyte lymphoma cell line (U937) was plated (3.2×10^4 cells per well) in a 96-well plate in 100 μL RPMI-1640 containing 10% FBS and penicillin/streptomycin, and differentiated into macrophages for 3 days in 60 ng/mL PMA ([…]) at 37° C. in 5% CO2 prior to the addition of the compound of interest. The cells were pretreated for 1 h with the test compound prior to stimulation with 1 ug/mL lipopolysaccharide from Escherichia coli. The cells were incubated at 37° C. for 3 h before the cells were harvested. At time of harvest, the spent media was removed from the cells and the cells were rinsed in 200 μL PBS. Cell lysis solution (70 μL) was added the cells in each well and incubated for 5-10 min at room temperature, to allow for complete cell lysis and detachment. mRNA was then prepared using the “mRNA Catcher PLUS plate” (Invitrogen), according to the protocol supplied. After the last wash, as much wash buffer as possible was aspirated without allowing the wells to dry. Elution buffer (E3, 70 μL) was then added to each well. mRNA was then eluted by incubating the mRNA Catcher PLUS plate with Elution Buffer for 5 min at 68° C. and then immediately placing the plate on ice.
The eluted mRNA isolated was then used in a one-step quantitative real-time PCR reaction, using components of the Ultra Sense Kit together with Applied Biosystems primer-probe mixes. Real-time PCR data was analyzed, normalizing the Ct values for hIL-6 to an internal control, prior to determining the fold induction of each unknown sample, relative to the control.

## COc1ccc(-c2nc3cc(OC)cc(OC)c3c(=O)[nH]2)c(NCCCN2CCCC2)c1 [Example 15, 5,7-Dimethoxy-2-(4-methoxy-2-((3-(pyrrolidin-1-yl)propyl)amino)phenyl)quinazolin-4(3H)-one]
[1]
  Cell Proliferation activity (IC50 < 30 μM): Active
[2]
  c-myc activity (IC50 < 30 μM): Active
[3]
  FRET activity BRD4(1): Active

## COc1ccc(CNc2cc(OC)c3c(=O)[nH]c(-c4ncccc4NC4CCN(C(C)C)CC4)nc3c2)cc1 [Example 61, 2-(3-((1-Isopropylpiperidin-4-yl)amino)pyridin-2-yl)-5-methoxy-7-((4-methoxybenzyl)amino)quinazolin-4(3H)-one]
[1]
  Cell Proliferation activity (IC50 < 30 μM): Active
[2]
  c-myc activity (IC50 < 30 μM): Active
other
  melting point: 220 to 222 °C
[3]
  FRET activity BRD4(1): Active

## COc1ccc(-c2nc3cc(OC)cc(OC)c3c(=O)[nH]2)c(NCCN2CCOCC2)c1 [Example 14, 5,7-Dimethoxy-2-(4-methoxy-2-((2-morpholinoethyl)amino)phenyl)-quinazolin-4(3H)-one]
[1]
  Cell Proliferation activity (IC50 < 30 μM): Not Active
other
  melting point: 239 to 240 °C
[3]
  FRET activity BRD4(1): Active

## COc1cc(OC)c2c(=O)[nH]c(-c3ncc(OCCNC4CCN(C(C)C)CC4)cc3NC3CCN(C(C)C)CC3)nc2c1 [Example 50, 2-(3-((1-Isopropylpiperidin-4-yl)amino)-5-(2-((1-isopropylpiperidin-4-yl)amino)ethoxy)pyridin-2-yl)-5,7-dimethoxyquinazolin-4(3H)-one]
[3]
  FRET activity BRD4(1): Active
[4]
  IL-6 activity (IC50 < 30 μM): Active

## COc1cc(OC)c2c(=O)[nH]c(-c3ncc(OCCN4CCCC4)cc3NC3CCN(C(C)C)CC3)nc2c1 [Example 66, 2-{3-(1-Isopropylpiperidin-4-ylamino)-5-[2-(pyrrolidin-1-yl)ethoxy]pyridin-2-yl}-5,7-dimethoxyquinazolin-4(3H)-one]
[1]
  Cell Proliferation activity (IC50 < 30 μM): Active
[2]
  c-myc activity (IC50 < 30 μM): Active
other
  melting point: 166 to 169 °C
[3]
  FRET activity BRD4(1): Active

## COc1cc(OC)c2c(=O)[nH]c(-c3ncccc3NC3CCN(CC(C)(C)O)CC3)nc2c1 [Example 59, 2-(3-((1-(2-Hydroxy-2-methylpropyl)piperidin-4-yl)amino)pyridin-2-yl)-5,7-dimethoxyquinazolin-4(3H)-one]
[1]
  Cell Proliferation activity (IC50 < 30 μM): Active
[2]
  c-myc activity (IC50 < 30 μM): Active
other
  melting point: 220 to 221 °C
[3]
  FRET activity BRD4(1): Active

## COc1ccc(-c2nc3cc(OC)cc(OC)c3c(=O)[nH]2)c(NCCCN2CCN(C)CC2)c1 [Example 21]
[1]
  Cell Proliferation activity (IC50 < 30 μM): Active
[2]
  c-myc activity (IC50 < 30 μM): Active
other
  melting point: 220 to 222 °C
[3]
  FRET activity BRD4(1): Active

## COc1cc(OC)c2c(=O)[nH]c(-c3ncccc3NC3CCN(C(=O)N(C)C)CC3)nc2c1 [Example 42, 4-((2-(5,7-Dimethoxy-4-oxo-3,4-dihydroquinazolin-2-yl)pyridin-3-yl)amino)-N,N-dimethylpiperidine-1-carboxamide]
[1]
  Cell Proliferation activity (IC50 < 30 μM): Active
[2]
  c-myc activity (IC50 < 30 μM): Active
other
  melting point: 195 to 197 °C
[3]
  FRET activity BRD4(1): Active

## COc1cc(OC)c2c(=O)[nH]c(-c3ncc(OCCNC(C)C)cc3NC3CCN(C(C)C)CC3)nc2c1 [Example 67, 2-{5-[2-(Isopropylamino)ethoxy]-3-(1-isopropylpiperidin-4-ylamino)pyridin-2-yl}-5,7-dimethoxyquinazolin-4(3H)-one]
[1]
  Cell Proliferation activity (IC50 < 30 μM): Active
[2]
  c-myc activity (IC50 < 30 μM): Active
other
  melting point: 178 to 181 °C
[3]
  FRET activity BRD4(1): Active

## COc1cc(OC)c2c(=O)[nH]c(-c3ncc(OCCO)cc3NC3CCN(C(C)C)CC3)nc2c1 [Example 62, 2-[5-(2-Hydroxyethoxy)-3-(l-isopropylpiperidin-4-ylamino)pyridin-2-yl]-5,7-dimethoxyquinazolin-4(3H)-one]
[1]
  Cell Proliferation activity (IC50 < 30 μM): Active
[2]
  c-myc activity (IC50 < 30 μM): Active
other
  melting point: 231 to 233 °C
[3]
  FRET activity BRD4(1): Active

## COc1ccc(-c2nc3cc(OC)cc(OC)c3c(=O)[nH]2)c(NCC2CCCN2C(C)C)c1 (stereo not shown) [Example 17, 2-(2-(((1-Isopropylpyrrolidin-2-yl)methyl)amino)-4-methoxyphenyl)-5,7-dimethoxyquinazolin-4(3H)-one]
[2]
  c-myc activity (IC50 < 30 μM): Active
other
  melting point: 207 to 209 °C
[3]
  FRET activity BRD4(1): Active

## COc1ccc(-c2nc3cc(OC)cc(OC)c3c(=O)[nH]2)c(NCC2CCN(C(C)C)C2)c1 (stereo not shown) [Example 16, 2-(2-(((1-Isopropylpyrrolidin-3-yl)methyl)amino)-4-methoxyphenyl)-5,7-dimethoxyquinazolin-4(3H)-one]
[1]
  Cell Proliferation activity (IC50 < 30 μM): Active
[2]
  c-myc activity (IC50 < 30 μM): Active
other
  melting point: 228 to 230 °C
[3]
  FRET activity BRD4(1): Active

## COc1cnc(-c2nc3cc(OC)cc(OC)c3c(=O)[nH]2)c(NC2CCN(C(C)C)CC2)c1 [Example 30, 2-(3-((1-Isopropylpiperidin-4-yl)amino)-5-methoxypyridin-2-yl)-5,7-dimethoxyquinazolin-4(3H)-one]
[1]
  Cell Proliferation activity (IC50 < 30 μM): Active
other
  melting point: 207 to 208 °C
[3]
  FRET activity BRD4(1): Active

## COc1ccc(-c2nc3cc(OC)cc(OC)c3c(=O)[nH]2)c(NC2CCOCC2)c1 [Example 9, 5,7-dimethoxy-2-(4-Methoxy-2-((tetrahydro-2H-pyran-4-yl)amino)-phenyl)quinazolin-4(3H)-one]
[1]
  Cell Proliferation activity (IC50 < 30 μM): Not Active
other
  melting point: 286 to 287 °C
[3]
  FRET activity BRD4(1): Active

## COc1cc(OC)c2c(=O)[nH]c(-c3ncccc3N[C@H]3CC[C@@H](C(=O)NC(C)C)CC3)nc2c1 [Example 63, cis-4-((2-(5,7-Dimethoxy-4-oxo-3,4-dihydroquinazolin-2-yl)pyridin-3-yl)amino)-N-isopropylcyclohexane-1-carboxamide]
[1]
  Cell Proliferation activity (IC50 < 30 μM): Not Active
other
  melting point: 256 to 257 °C
[3]
  FRET activity BRD4(1): Active
